Patent US20240245705A1, “ORALLY ADMINISTERED COMBINATIONS OF AMOXICILLIN AND AVIBACTAM DERIVATIVES FOR TREATING MYCOBACTERIAL INFECTIONS” (Arixa Pharmaceuticals, Inc., priority 2019, published 2024)
Counter-ions that a name gives are not always drawn.

What was measured:
[1] = human, avibactam itself given orally; cited from earlier work
[2] = Single ascending dose phase 1 study: pharmacokinetics of avibactam after oral avibactam derivative (3) in healthy human volunteers; assay type: in vivo; settings: following oral administration of avibactam derivative (3)
Experimental: The pharmacokinetics of avibactam provided as an orally administered avibactam derivative was determined on healthy human volunteers.
A randomized, double-blind, placebo-controlled single ascending dose phase 1 study was undertaken with healthy male and female adults. Three cohorts, each comprising 10 patients received a single oral dose of 300 mg, 900 mg, or 1,350 mg avibactam derivative (3) (ethyl 3-(((((1R,2S,5R)-2-carbamoyl-7-oxo-1,6-diazabicyclo[3.2.1]octan-6-yl)oxy)sulfonyl)oxy)-2,2-dimethylpropanoate) under fed conditions as a suspension of 10 mg/mL (n=8) or placebo (n−2).
Plasma and urine PK samples were collected prior to dosing and at frequent intervals after dosing.

[3] = Avibactam oral bioavailability in humans; assay type: in vivo; settings: human patients, oral avibactam derivative
Text: Avibactam derivatives, when orally administered, provide an enhanced oral bioavailability of the β-lactamase inhibitor compared to the oral bioavailability of the parent β-lactamase inhibitor. […] The oral bioavailability of avibactam in a human is about 7%.

SMILES: NC(=O)[C@@H]1CC[C@@H]2CN1C(=O)N2OS(=O)(=O)O [avibactam, [2S,5R]-2-carbamoyl-7-oxo-1,6-diazabicyclo[3.2.1]octan-6-yl hydrogen sulfate]
- oral bioavailability of avibactam [1]: about 7%

SMILES: CCOC(=O)C(C)(C)COS(=O)(=O)ON1C(=O)N2C[C@H]1CC[C@H]2C(N)=O [avibactam derivative (3), ethyl 3-(((((1R,2S,5R)-2-carbamoyl-7-oxo-1,6-diazabicyclo[3.2.1]octan-6-yl)oxy)sulfonyl)oxy)-2,2-dimethylpropanoate]
- clearance of avibactam in the systemic compartment [2]: rapid clearance
- avibactam oral bioavailability [3]: greater than 50 % F
